Data taken from ChEMBL document CHEMBL2346512, “Inhibitory effect of 4,4'-dihydroxy-α-truxillic acid derivatives on NO production in lipopolysaccharide-induced RAW 264.7 macrophages and exploration of structure-activity relationships” (Bioorg Med Chem Lett, 2013).
pIC50: −log10 of the molar value.

Key:
RAW264.7 [1] = test: Inhibition of LPS-induced NO production in mouse RAW264.7 cells at 25 uM pretreated for 20 mins before LPS challenge measured after 18 hrs post LPS challenge by spectrophotometry; format: functional
[2] = Cytotoxicity against mouse RAW264.7 cells assessed as cell viability at 25 uM after 18 hrs by CCK-8 assay; format: cell-based; conditions: read-out: Activity
RAW264.7 [3] = test: Inhibition of LPS-induced NO production in mouse RAW264.7 cells at 50 uM pretreated for 20 mins before LPS challenge measured after 18 hrs post LPS challenge by spectrophotometry; format: functional
RAW264.7 [4] = test: Inhibition of LPS-induced NO production in mouse RAW264.7 cells at 100 uM pretreated for 20 mins before LPS challenge measured after 18 hrs post LPS challenge by spectrophotometry; format: functional
RAW264.7 [5] = test: Inhibition of LPS-induced NO production in mouse RAW264.7 cells at 12.5 uM pretreated for 20 mins before LPS challenge measured after 18 hrs post LPS challenge by spectrophotometry; format: functional
RAW264.7 [6] = test: Inhibition of LPS-induced NO production in mouse RAW264.7 cells pretreated for 20 mins before LPS challenge measured after 18 hrs post LPS challenge by spectrophotometry; format: functional, cell-based
RAW264.7 [7] = test: Cytotoxicity against mouse RAW264.7 cells assessed as cell viability after 18 hrs by CCK-8 assay; format: cell-based; conditions: RAW264.7, 18 h
RAW264.7 [8] = test: Cytotoxicity against mouse RAW264.7 cells assessed as cell viability up to 50 uM after 18 hrs by CCK-8 assay; format: cell-based; conditions: raw264.7, 18 h

| SMILES | inhibition at 25 µM (RAW264.7 [1]) | viability at 18 h, 25 µM [2] | further results |
| --- | --- | --- | --- |
| O=C(OCCI)[C@H]1[C@H](c2ccc(O)cc2)[C@H](C(=O)OCCI)[C@H]1c1ccc(O)cc1 | 49.9% | 98% |  |
| O=C(OCC1CC1)[C@H]1[C@H](c2ccc(O)cc2)[C@H](C(=O)OCC2CC2)[C@H]1c1ccc(O)cc1 | 33.9% | 95% |  |
| CC(C)OCCOC(=O)[C@H]1[C@H](c2ccc(O)cc2)[C@H](C(=O)OCCOC(C)C)[C@H]1c1ccc(O)cc1 | 22% | 100% |  |
| CCCOCCOC(=O)[C@H]1[C@H](c2ccc(O)cc2)[C@H](C(=O)OCCOCCC)[C@H]1c1ccc(O)cc1 | 23.6% | 100% |  |
| O=C(OC1CCOCC1)[C@H]1[C@H](c2ccc(O)cc2)[C@H](C(=O)OC2CCOCC2)[C@H]1c1ccc(O)cc1 | 18% | 100% |  |
| O=C(OCC12CC3CC(CC(C3)C1)C2)[C@H]1[C@H](c2ccc(O)cc2)[C@H](C(=O)OCC23CC4CC(CC(C4)C2)C3)[C@H]1c1ccc(O)cc1 | 27.8% | 98% |  |
| CC(C)(C)[Si](C)(C)Oc1ccc(/C=C/C(=O)O)cc1 | 0% |  | inhibition at 50 µM (RAW264.7 [3]): 2.2%; inhibition at 100 µM (RAW264.7 [4]): 6.5%; inhibition at 12.5 µM (RAW264.7 [5]): 0% |
| CSCCOC(=O)[C@H]1[C@H](c2ccc(O)cc2)[C@H](C(=O)OCCSC)[C@H]1c1ccc(O)cc1 | 24.4% | 100% |  |
| C#CCOCCOC(=O)[C@H]1[C@H](c2ccc(O)cc2)[C@H](C(=O)OCCOCC#C)[C@H]1c1ccc(O)cc1 | 13.5% | 100% |  |
| O=C(OC1CCC1)[C@H]1[C@H](c2ccc(O)cc2)[C@H](C(=O)OC2CCC2)[C@H]1c1ccc(O)cc1 | 55% | 62.6% | pIC50 (RAW264.7 [6]): 4.70; pIC50 (RAW264.7 [7]): 4.49 |
| C#CCCOC(=O)[C@H]1[C@H](c2ccc(O)cc2)[C@H](C(=O)OCCC#C)[C@H]1c1ccc(O)cc1 | 28.3% | 100% |  |
| C=C(C)C1CC=C(COC(=O)[C@H]2[C@H](c3ccc(O)cc3)[C@H](C(=O)OCC3=CCC(C(=C)C)CC3)[C@H]2c2ccc(O)cc2)CC1 (stereo not given in full) | 36.1% | 78% |  |
| COCCOCCOCCOC(=O)[C@H]1[C@H](c2ccc(O)cc2)[C@H](C(=O)OCCOCCOCCOC)[C@H]1c1ccc(O)cc1 | 11.9% | 100% |  |
| CC(C)=CCC/C(C)=C/COC(=O)[C@H]1[C@H](c2ccc(O)cc2)[C@H](C(=O)OC/C=C(\C)CCC=C(C)C)[C@H]1c1ccc(O)cc1 | 33.9% | 80% |  |
| CC(C)[C@@H]1CC[C@@H](C)C[C@H]1OC(=O)[C@H]1[C@H](c2ccc(O)cc2)[C@H](C(=O)O[C@@H]2C[C@H](C)CC[C@H]2C(C)C)[C@H]1c1ccc(O)cc1 | 72% | 98% | Activity (RAW264.7 [8]): Non-toxic; pIC50 (RAW264.7 [6]): 4.76; pIC50 (RAW264.7 [7]): 4.22 |
| CCC[C@H]1CC[C@H]([C@H]2CC[C@H](OC(=O)[C@H]3[C@H](c4ccc(O)cc4)[C@H](C(=O)O[C@H]4CC[C@H]([C@H]5CC[C@H](CCC)CC5)CC4)[C@H]3c3ccc(O)cc3)CC2)CC1 | 0% | 100% |  |
| O=C(OCC(F)(F)C(F)F)[C@H]1[C@H](c2ccc(O)cc2)[C@H](C(=O)OCC(F)(F)C(F)F)[C@H]1c1ccc(O)cc1 | 15.7% | 100% |  |
| CC(C)=CCC/C(C)=C\COC(=O)[C@H]1[C@H](c2ccc(O)cc2)[C@H](C(=O)OC/C=C(/C)CCC=C(C)C)[C@H]1c1ccc(O)cc1 | 42.6% | 56% |  |
| O=C(O)/C=C/c1ccc(O)cc1 [COUMARIC ACID] | 0% |  | inhibition at 50 µM (RAW264.7 [3]): 6.5%; inhibition at 100 µM (RAW264.7 [4]): 13.2%; inhibition at 12.5 µM (RAW264.7 [5]): 0% |

| SMILES | inhibition at 25 µM (RAW264.7 [1]) | viability at 18 h, 25 µM [2] | further results |
| --- | --- | --- | --- |
| O=C(OC1CCCCC1)[C@H]1[C@H](c2ccc(O)cc2)[C@H](C(=O)OC2CCCCC2)[C@H]1c1ccc(O)cc1 | 76% | 67.8% | pIC50 (RAW264.7 [6]): 4.79; pIC50 (RAW264.7 [7]): 4.48 |
| O=C(O)[C@H]1[C@H](c2ccc(O)cc2)[C@H](C(=O)O)[C@H]1c1ccc(O)cc1 | 5.5% | 100% |  |
| COCCOCCOC(=O)[C@H]1[C@H](c2ccc(O)cc2)[C@H](C(=O)OCCOCCOC)[C@H]1c1ccc(O)cc1 | 21.9% | 100% |  |
| O=C(OC1CCCCCC1)[C@H]1[C@H](c2ccc(O)cc2)[C@H](C(=O)OC2CCCCCC2)[C@H]1c1ccc(O)cc1 | 16% | 100% |  |
| CC(C)(C)C1CCC(OC(=O)[C@H]2[C@H](c3ccc(O)cc3)[C@H](C(=O)OC3CCC(C(C)(C)C)CC3)[C@H]2c2ccc(O)cc2)CC1 (stereo not given in full) | 0% | 100% |  |
| O=C(OCC1CCCCC1)[C@H]1[C@H](c2ccc(O)cc2)[C@H](C(=O)OCC2CCCCC2)[C@H]1c1ccc(O)cc1 | 46.9% | 37% | pIC50 (RAW264.7 [6]): 4.54; pIC50 (RAW264.7 [7]): 4.75 |
| N=C(N)NN [PIMAGEDINE] | 56% |  | inhibition at 50 µM (RAW264.7 [3]): 71%; pIC50 (RAW264.7 [6]): 4.73 |
| O=C(OCC1CCCO1)[C@H]1[C@H](c2ccc(O)cc2)[C@H](C(=O)OCC2CCCO2)[C@H]1c1ccc(O)cc1 (stereo not given in full) | 10.2% | 96% |  |
| CCC[C@H]1CC[C@H]([C@H]2CC[C@@H](OC(=O)[C@H]3[C@H](c4ccc(O)cc4)[C@H](C(=O)O[C@H]4CC[C@@H]([C@H]5CC[C@H](CCC)CC5)CC4)[C@H]3c3ccc(O)cc3)CC2)CC1 | 0% | 100% |  |
| O=C(OCC(F)(F)F)[C@H]1[C@H](c2ccc(O)cc2)[C@H](C(=O)OCC(F)(F)F)[C@H]1c1ccc(O)cc1 | 65.3% | 78% | pIC50 (RAW264.7 [6]): 4.68; pIC50 (RAW264.7 [7]): 4.41 |
| O=C(OCCC1CCCCC1)[C@H]1[C@H](c2ccc(O)cc2)[C@H](C(=O)OCCC2CCCCC2)[C@H]1c1ccc(O)cc1 | 19.1% | 100% |  |
| CCC/C=C/COC(=O)[C@H]1[C@H](c2ccc(O)cc2)[C@H](C(=O)OC/C=C/CCC)[C@H]1c1ccc(O)cc1 | 72.3% | 40% | pIC50 (RAW264.7 [6]): 4.75; pIC50 (RAW264.7 [7]): 4.71 |
| O=C(OCCF)[C@H]1[C@H](c2ccc(O)cc2)[C@H](C(=O)OCCF)[C@H]1c1ccc(O)cc1 | 13% | 100% |  |
| CC(C)[C@H]1CC[C@H](C)C[C@@H]1OC(=O)[C@H]1[C@H](c2ccc(O)cc2)[C@H](C(=O)O[C@H]2C[C@@H](C)CC[C@@H]2C(C)C)[C@H]1c1ccc(O)cc1 | 17.4% | 90% |  |
| C=C(C)COC(=O)[C@H]1[C@H](c2ccc(O)cc2)[C@H](C(=O)OCC(=C)C)[C@H]1c1ccc(O)cc1 | 27.9% | 100% |  |
| CCCCOCCOC(=O)[C@H]1[C@H](c2ccc(O)cc2)[C@H](C(=O)OCCOCCCC)[C@H]1c1ccc(O)cc1 | 45.8% | 95% | pIC50 (RAW264.7 [6]): 4.49; pIC50 (RAW264.7 [7]): 4.35 |
| O=C(OC(C(F)(F)F)C(F)(F)F)[C@H]1[C@H](c2ccc(O)cc2)[C@H](C(=O)OC(C(F)(F)F)C(F)(F)F)[C@H]1c1ccc(O)cc1 | 55% | 32.6% | pIC50 (RAW264.7 [6]): 4.65; pIC50 (RAW264.7 [7]): 4.75 |
| O=C(OC1CCCC1)[C@H]1[C@H](c2ccc(O)cc2)[C@H](C(=O)OC2CCCC2)[C@H]1c1ccc(O)cc1 | 62.1% | 58% | pIC50 (RAW264.7 [6]): 4.68; pIC50 (RAW264.7 [7]): 4.51 |
| CCOCCOCCOCCOC(=O)[C@H]1[C@H](c2ccc(O)cc2)[C@H](C(=O)OCCOCCOCCOCC)[C@H]1c1ccc(O)cc1 | 15.7% | 100% |  |
